Laboratory results from patent US20230406803A1, “TROPOLONE DERIVATIVES AND TAUTOMERS THEREOF FOR IRON REGULATION IN ANIMALS” (Kinesid Therapeutics, Inc, priority 2020, published 2023).

Key:
[1] = system: DMT1-deficient Caco-2 cells; assay: shDMT1-Caco2 55Fe transport assay; assay type: cell-based; settings: Caco-2
From the text: Assay 2: shDMT1-Caco2 ^55Fe Transport Assay to Assess Ligand Ability in Transporting Fe (III)
Cells: DMT1-deficient Caco-2 cells (alias: “shDMT1,” or “4A” cells) were from Grillo et al. Science, 2017, and were cryopreserved in liquid nitrogen prior to use.
Reagents and supplies: ^55FeCl3 was obtained from PerkinElmer (Boston, MA). Iron(III) chloride (FeCl3) hexahydrate was obtained from Sigma. Dulbecco's Modified Eagle Medium (DMEM), fetal bovine serum (FBS), L-glutamine, MEM nonessential amino acids, penicillin-streptomycin, G418, formic acid, methanol, high-purity water, ammonium formate, dimethyl sulfoxide (DMSO) were purchased from Fisher Scientific. Propranolol, atenolol and carbutamide were obtained from Sigma-Aldrich Chemical Company (St Louis, MO). Scintillation cocktail was obtained from Research Product International Co. (Mount Prospect, IL). Stericup filter system (PES membrane, 0.22 um pore size) was purchased from Fisher Scientific. Corning item #3378 24-well transwell insert plates.
Test articles: known compounds hinokitiol and deferiprone were purchased from Sigma. They are tested side by side with the small molecule ligands disclosed in this application. DMSO stocks (10 mM, which is 1,000× of the 10 μM dose level) of hinokitiol or test articles were prepared. A stock solution of 25 mM deferiprone in DMSO was prepared. The DMSO stock solutions were stored at −20° C. or below when not in use.
The growth medium was prepared according to the following table
Apical media (serum free DMEM, 10 mM MES, pH 6.5) was prepared. Apical master mix media was prepared fresh with the addition of 200 nM ^55Fe before each experiment. For the negative control propranolol and atenolol wells, 200 nM of non-radioactive iron was used.
The basolateral media was serum-free DMEM, 10 mM HEPES, 2% bovine serum albumin (BSA), pH 7.4.
For each experiment, cells were seeded into the 24-well transwell plates (0.5 mL of 50,000 cells/mL) with growth media. The basolateral companion plate was loaded with 1 mL of growth media. After 12-24 hr, both the apical and basolateral chamber were replaced with growth media. The apical media was changed 3× per week for 21-28 days, including a media change exactly 48 hr before the assay date.
On the assay day, the TEER values were measured and the average TEER value was obtained. Individual wells with TEER value >35% lower than the average of all wells were excluded. For the qualified wells, the apical layer (twice) and basolaterial (once) chambers were washed with PBS. The basolateral companion plate was then filled with 1 mL of basolateral media. Via addition down the side-wall of the apical well, 300 μL per well of the apical assay master mix, with the indicated dose level of test article, was added. Each dose was tested in triplicate. The plates were incubated (5% CO2 and 90% humidity at 37° C.) for the indicated timepoints. At each indicated timepoint, the basolateral supernatant was gently mixed via pipetting, and 200 μL of the basolateral supernatant was transferred to scintillation vials. To each scintillation counting vial, 5 mL of scintillation cocktail fluid was added. For each scintillation vial, the radioactivity (CPM) was determined with liquid scintillation counter LS6500. The counting time per vial was 5 min.
All raw CPM values are divided by the average value of blank DMSO solution to give a fold of change above the DMSO value. The mean and standard deviation of each compound at each concentration level and at each time point measured was calculated to give the fold change (fc) value. For rank order compounds, the fc value of a ligand at 4 h time point is further divided by the fold change (fc) value of hinokitiol (a positive control compound) at an equimolar concentration to arrive at the FC (normalized fold of change) value. Data reported in Tables 1 and 2 is 4 hr time point FC=fc-ligand @ 3 uM/fc-hino @ 3 μM, and FC hino=1.

[2] = Ligand facilitated Fe(III) efflux from liposomes; assay type: biochemical; set-up: unit not given here; settings: efflux rate k at 10 μM ligand concentration; ferrozine absorbance 562 nm, 120 min kinetic read
Experimental: Assay 1: Ligand Facilitated Fe(III) Efflux from Liposomes
Preparation of POPC (1 palmitoyl-2-oleoyl-sn-glycero-3 phosphocholine): Cholesterol Liposomes
A 1M buffer solution of MES and Tris was prepared by dissolving 121.14 grams of Tris base and 213.25 grams of MES hydrate in 500 mL of MilliQ water and adjusted to pH7.0 using an […] HCl solution before bringing the total volume of the solution to 1 L. A 500 mM solution of FeCl3 was prepared by dissolving 0.811 grams of anhydrous FeCl3 in 10 mL of a 0.1M H2SO4 aqueous solution. Inside buffer is prepared in a 50 mL falcon tube, which was added with 25 mL of MilliQ water, 1.61 g of sodium citrate, 1.5 mL of the above FeCl3 solution, and 2.5 mL of the 1M MES/Tris HCl buffer (pH=7.0), and finally additional MilliQ H2O to bring to a 50 mL final volume.
Lipid solution is prepared by dissolving 206.9 mg of POPC (1-palmitoyl-2-oleoyl-sn-glycero-3-phosphocholine) and 8.6 mg of cholesterol in 10 mL of ethanol.
The lipids solution and the inside buffer solution are independently loaded into 10 mL luer lock syringes for loading into a virgin cartridge on a Precision Nanosystems NanoAssembler to prepare unilamaller liposomes with the following parameters: 7.5 mL total volume, 1.5:1 mixing ratio of inside buffer:lipids solution, 8 mL/min flow rate, ambient temperature, 0.35 mL start waste, and 0.05 mL of end waste. 7.5 mL of liposomes is harvested for purification on a 6-inch long, 1-inch diameter Sephadex G-50 column wetted in 600 mM sodium ascorbate and 50 mM MES/Tris HCl pH 7.0 buffer. This buffer also serves as the column running buffer. The crude liposome solution is carefully loaded with minimal volume of running buffer above the top of the Sphadex, allowed to enter the matrix, and the column is run with the continued addition of running buffer. The eluting liposomes, observed as a milky and turbid solution, are collected until free iron begins to elute (observed as a deep purple color) and the fractions are pooled for phosphorus quantitation.
Determination of Phosphorus Content:
Phosphorus content of eluted liposomes was determined by the process outlined below. 10 μL of liposome elution and a running buffer blank are added to a 5 mL glass vial containing 450 μL of a 8.9 M aqueous H2SO4 solution, the mixture is heated to 225° C. for 25 minutes in an aluminum heat block to hydrolyze POPC and cooled for 5 minutes. 200 μL of a 30% hydrogen peroxide aqueous solution is added to each vial and heated to 225° C. for 25 minutes. After cooling, the phosphorus content was determined using an Abcam Phosphate Assay kit, with buffer subtracted phosphorus levels determined against a standard curve of phosphate included in the kit. Liposomes were diluted to 1 mM phosphate in Running Buffer for use in assays after accounting for dilutions made during phospholipid digestion.
Determination of the Iron Transporting Rate Constant of the Ligands:
Determination of the rate at which a small molecule ligand liberates (transport) Ferric iron from liposomes is performed in clear bottom black 384-well plates on a Spectramax i3x set to read the absorbance at 562 nm in the kinetic mode every 60 seconds for 120 minutes. 1 μL of serially diluted DMSO stock solution of a small molecule ligand is added to wells in triplicate to give the final concentrations of 40, 20, 10, 5, 2.5, and 1.25 uM of the ligand at 80 μL final volume, followed by addition of 1 μL of 100 mM Ferrozine in water to give a final concentration of 1 mM ferrozine. 78 μL of liposomes diluted to 1 mM phosphorus in running buffer is added to wells as quickly as possible (using a digital repeater multichannel pipette) with the kinetic read initiated as rapidly as possible after addition of liposomes to all wells. Typically, eight compounds at six concentrations are tested in triplicate simultaneously. […]

Row | Caco2 shDMT1 transport FC @ 3 μM, 4 h [1] | SMILES | Liposome Fe transport kefflux at 10 μM [2]
1 | 0.01-0.5 | O=c1c(O)ccccc1F | 0.1-5
2 | 0.01-0.5 | O=c1ccc(C2CC3CCC(C2)O3)ccc1O (stereo not drawn) | 0.1-5
3 | 1-5 | O=c1ccc(OC2CCC2)ccc1O | 10-25
4 | 0.5-1 | CCOc1cccc(=O)c(O)c1 | 5-7.5
5 | 1-5 | Cc1cccc(C)c(=O)c1O | 10-25
6 | 0.5-1 | Cc1c(C2CC2)cccc(=O)c1[O-].[Na+] | 0.1-5
7 | 0.01-0.5 | Cc1ccc(F)c(=O)c([O-])c1.[Na+] | 0.1-5
8 | 0.01-0.5 | Cc1ccc(C(F)(F)F)c(=O)c(O)c1 | 7.5-10
9 | 1-5 | O=c1ccccc(C2CCCO2)c1O (stereo not drawn) | 10-25
10 | 0.1-5 | O=c1ccccc([C@@H]2CCCO2)c1O | 7.5-10
11 | 0.01-0.5 | O=c1ccc(C2CCCO2)ccc1O (stereo not drawn) | 7.5-10
12 | 0.01-0.5 | O=c1ccc(C2CC3CC3C2)ccc1O (stereo not drawn) | 5-7.5
13 | 0.01-0.5 | O=c1ccc([C@@H]2CCC[C@H]2O)ccc1O | 7.5-10
14 | 0.01-0.5 | CC(=O)N1CCC(c2ccc(O)c(=O)cc2)CC1 | 5-7.5
15 | 0.01-0.5 | Cc1ccc(O)c(=O)c(F)c1 | 0.1-5
16 | 0.01-0.5 | O=c1ccccc(C2CCCO2)c1S (stereo not drawn) | 7.5-10

The remaining lines, values behind:

Row | SMILES | Caco2 shDMT1 transport FC @ 3 μM, 4 h [1] | Liposome Fe transport kefflux at 10 μM [2]
17 | O=c1ccc(C2CCOCC2)ccc1O | 0.01-0.5 | 0.1-5
18 | O=c1cccc(C2CCOCC2)cc1O | 0.01-0.5 | 10-25
19 | O=c1ccccc(C2CCCCO2)c1O (stereo not drawn) | 1-5 | 0.1-5
20 | CC(C)Oc1ccc(O)c(=O)cc1 | 0.01-0.5 | 7.5-10
21 | CCOc1ccc(O)c(=O)cc1 | 0.01-0.5 | 7.5-10
22 | CC(C)Oc1cccc(=O)c(O)c1 | 0.5-1 | 5-7.5
23 | COc1cccc(=O)c(O)c1 | 0.01-0.5 | 5-7.5
24 | Cc1ccc(O)c(=O)c(C)c1 | 1-5 | 5-7.5
25 | Cc1ccc(C)c(=O)c(O)c1 | 1-5 | 0.1-5
26 | Cc1ccc(C2CC2)cc(O)c1=O | 0.5-1 | 7.5-10
27 | Cc1cc(C2CC2)ccc(O)c1=O | 1-5 | 0.1-5
28 | CCc1ccc(O)c(=O)c(C)c1 | 1-5 | 5-7.5
29 | CCc1ccc(C)c(=O)c(O)c1 | 0.5-1 | 5-7.5
30 | Cc1ccc(C(C)C)cc(O)c1=O | 0.5-1 | 0.1-5
31 | O=c1c(F)cccc(C2CCCO2)c1O (stereo not drawn) | 0.01-0.5 | 5-7.5
32 | CC(C)c1ccc(C(F)(F)F)c(=O)c(O)c1 | 0.01-0.5 | 5-7.5
33 | Cc1ccc(O)c(=O)c(C(F)(F)F)c1 | 0.01-0.5 | 10-25
34 | O=c1ccccc([C@H]2CCCO2)c1O | 0.1-5 | 7.5-10
35 | O=c1cccc(C2CCCO2)cc1O (stereo not drawn) | 0.01-0.5 | 7.5-10
36 | CC1(C)CCC(c2cccc(=O)c(O)c2)C1 (stereo not drawn) | 0.01-0.5 | 5-7.5
37 | O=c1ccc(C2CCC2)ccc1O | 0.01-0.5 | 10-25
38 | CCOC(=O)N1CCC(c2ccc(O)c(=O)cc2)CC1 | 0.01-0.5 | 5-7.5
39 | O=c1ccccc(C2CCOC2)c1O (stereo not drawn) | 0.01-0.5 | <0.1
40 | O=c1cccc(OC2COC2)cc1O | 0.01-0.5 | 0.1-5
41 | CCc1cccc(F)c(=O)c1O | 0.01-0.5 | 10-25
42 | O=c1ccc(OC2CC2)ccc1O | 0.5-1 | 10-25
